Experiments:
[1] = tested on: patients with moderate to severe AA; assay: Open-label trial of oral ruxolitinib in 12 patients with moderate to severe AA: hair regrowth (SALT); type: in vivo, human
Description: (§1) The study's primary efficacy endpoint was the proportion of responders at end of treatment, defined as those subjects achieving at least 50% regrowth compared to baseline assessed by the Severity of Alopecia Tool (SALT) score, a standardized, validated method for estimating hair loss in AA. Secondary efficacy endpoints included hair re-growth as a continuous variable. […] To assess response durability, responders were followed for 3 months after treatment was completed. Safety analysis was included as a secondary endpoint for all subjects who received at least one dose of ruxolitinib and was monitored as described at monthly visits.

[2] = tested on: patients with moderate to severe AA; assay: Adverse events in ruxolitinib trial; details: in vivo
Description: as §1
Adverse events were assessed at every monthly visit. Patients were also encouraged to contact the study center in the interim between visits if they developed new signs or symptoms of concern.

[3] = tested on: ALADIN CTL, IFN and KRT signatures; assay: Skin biopsy gene expression / ALADIN scores in ruxolitinib trial; type: in vivo, human
Description: Biopsies and peripheral blood were obtained at baseline and after 12 weeks for immune monitoring and molecular studies. Several patients provided additional biopsies at intermediate time points during the course of treatment, and one patient provided an additional sample at week 24. Tissues specimens were fixed and stored in PAXgene Tissue Containers. Total RNA was extracted from skin biopsy specimens harvested during the course of the clinical trial using the PAXgene tissue miRNA kit. Library prep was performed for microarray analysis using Ovation RNA Amplification System V2 and Biotin Encore kits (NuGen Technologies, Inc., San Carlos, Calif.). Samples were subsequently hybridized to Human Genome U133 Plus 2.0 chips (Affymetrix, Santa Clara, Calif.) and scanned at the Yale Center for Genome Analysis. Library prep and microarray hybridization of RNA extracted from skin biopsies from three healthy controls were performed together with the samples from the treated patients for a total of 31 samples. Gene expression analyses included calculation of ALADIN scores, differential expression analysis of the expression levels for the identification of gene expression signatures, principal component analysis, and statistical analysis of the ALADIN scores. Microarray data from the 31 samples have been deposited in GEO under accession number GSE80342.
ALADIN scores were calculated for all […] using the batch corrected expression data. The CTL, IFN, and KRT ALADIN scores were determined following procedures outlined previously. Briefly, z-scores are calculated for each PSID relative to the mean and standard deviation of normal controls. Scores for each gene are obtained by averaging z-scores of PSIDs mapping to that gene. Signature scores are then calculated averages of the scores for genes belonging to the corresponding signature.
In order to examine possible differences between each of the CTL, IFN, and KRT ALADIN scores in responders and non-responders, in responders and normal controls and in non-responders and normal controls, the inventors tested for differences among the three groups using a Kruskal-Wallis test, followed by Wilcoxon Rank Sum tests as implemented in the coin package in R. The inventors then examined the change between baseline and ALADIN scores at 12 weeks for responders using Wilcoxon Signed Rank test as implemented in the coin package in R. The inventors further tested for differences in the three scores between responders at 12 weeks and normal controls.

[4] = tested on: patients with moderate to severe AA; assay: Oral ruxolitinib in three patients with moderate to severe AA (hair regrowth, biopsies); type: in vivo, human
Protocol: Skin punch biopsies (4 mm) were obtained at baseline and after 12 weeks of treatment.
For immunohistochemical studies of human skin, 5 μM formalin fixed and paraffin skin section were used. […] ImmPRESS HRP Anti Rabbit Ig or Mouse Ig (Peroxidase) Polymer (Vector Lab) were used as secondary antibody.
The IFN and CTL signatures were used to develop a bivariate score statistic. Individual signature IFN and CTL scores were determined following procedures used in human SLE. The sets of genes selected to comprise the IFN and CTL signatures were CD8A, GZMB, and ICOS for the CTL signature, and CXCL9, CXCL10, CXCL11, STAT1, and MX1 for the IFN signature.

[5] = tested on: patient with persistent moderate/severe AA; assay: Oral tofacitinib in one patient with persistent moderate/severe AA (hair regrowth, safety)
CXCL10 = assay: Serum CXCL10 ELISA in tofacitinib-treated AA patient; type: in vivo, human; details: baseline vs 4 weeks of treatment
Protocol: (§2) Punch biopsies of the scalp (FIG. 17) and blood draws were performed at baseline and after 4 weeks of treatment to monitor gene expression and biomarker changes. […] In addition, microarray analysis was performed on the skin biopsy samples.

dermal sheath cells = assay: CTL killing of dermal sheath cells; type: cell-based, mouse
[6] = tested on: ALADIN IFN and CTL signatures; assay: ALADIN scores of scalp biopsies in tofacitinib-treated AA patient; type: in vivo, human; details: baseline vs 4 weeks of treatment
Protocol: as §2

[7] = tested on: CTL effectors from C3H/HeJ mice; assay: IL-15 responses in cultured CTL effectors; type: cell-based, mouse
[8] = tested on: C3H/HeJ grafted mice with established AA; assay: Systemic treatment of established AA in grafted C3H/HeJ mice; type: in vivo, mouse
Description: C3H/HeJ mouse strain (Jackson Laboratories, Bar Harbor, Me.) was used for all animal studies. Only female mice were used. Mouse recipients of alopecic skin grafts were aged 7-10 weeks at the time of grafting. For prevention experiments, drug administration began the day after grafting. […] For topical treatment studies, drug administration was initiated 20 weeks following grafting. All animal procedures were done according to protocols approved by the Columbia University Medical Center Institutional Animal Care and Use Committee.

C3H/HeJ grafted mice = assay: Prevention of AA in C3H/HeJ skin graft model, systemic treatment from time of grafting; type: in vivo, mouse; details: systemic administration from the time of grafting
Description: IL-2 and IL-15 are well-known drivers of cytotoxic activity by IFN-γ-producing CD8+ effector T cells and NK cells and have been implicated in the induction and/or maintenance of autoreactive CD8+ T cells. To test the efficacy of IFN-γ- and γ c-targeted therapies in vivo, the inventors used the well-established graft model of AA, in which skin grafts from mice with spontaneous AA are transferred onto the backs of unaffected 10-week-old recipient C3H/HeJ mice. In this model, AA develops reliably in 95-100% of grafted recipients within 6-10 weeks, allowing us to test interventions aimed at either preventing or reversing disease.
C3H/HeJ mouse strain (Jackson Laboratories, Bar Harbor, Me.) was used for all animal studies. Only female mice were used. Mouse recipients of alopecic skin grafts were aged 7-10 weeks at the time of grafting. For prevention experiments, drug administration began the day after grafting. For systemic treatment studies, drug administration was initiated approximately 3 months after mice lost their hair. For topical treatment studies, drug administration was initiated 20 weeks following grafting. […]
For the prevention experiments, a time-to-event survival analysis for interval censored data was performed. […] Hair growth index was calculated.

[9] = tested on: C3H/HeJ mice with long-standing AA; assay: Topical treatment of established AA in grafted C3H/HeJ mice; type: in vivo, mouse; details: applied to back skin
Description: This experiment was repeated three times. […] NS, not significant. […] Scale bar, 100 μm. […] Scale bar, 200 μm.
Only female mice were used.

[10] = systemic therapy initiated 7 weeks after grafting

N#CC[C@H](C1CCCC1)n1cc(-c2ncnc3[nH]ccc23)cn1 [ruxolitinib]
proportion of patients achieving the primary outcome of at least 50% regrowth ([1]; 20 mg PO twice daily, 3 to 6 months, nine of twelve patients): 75% | mean SALT score at 3 months ([1]; baseline 65.8±28.0%): 24.8±22.9% | mean SALT score at the end of 6 months of treatment ([1]; baseline 65.8±28.0%, p<0.004): 7.3±13.5% | average hair regrowth at the end of treatment ([1]; nine responding patients): 92% | reduction in hair loss from baseline, responders as a group ([1]; responders): 92% | URI/allergy symptoms ([2]; human): 9 episodes | GI symptoms [2]: mild GI symptoms | UTI [2]: one UTI | acne or scalp folliculitis [2]: Two patients developed lesions consistent with acne or scalp folliculitis | bacterial skin infections [2]: three minor bacterial skin infections (in the same patient) | conjunctival hemorrhage [2]: one conjunctival hemorrhage following a surgical procedure | discontinuation of therapy [2]: no patients required discontinuation of therapy | hemoglobin [2]: One patient developed lowered hemoglobin, which resolved with dose modification | hepatic abnormalities [2]: No hepatic abnormalities were observed | platelet counts [2]: No significant decline in platelet counts | pneumonia [2]: one mild pneumonia | serious adverse effects [2]: no serious adverse effects | white blood cell counts [2]: modest declines of white blood cell counts initially but levels remained within normal limits | CTL score at week 12, overall ([3]; all patients, baseline 8.30, p<0.004): 1.51 | IFN score at week 12, overall ([3]; all patients, baseline 31.08, p<0.004): −0.37 | KRT score at week 12, overall ([3]; all patients, baseline −39.36, p=0.054): −15.02 | CTL score at week 12, responders only ([3]; baseline 9.37, p<0.008): 1.6 | IFN score at week 12, responders only ([3]; baseline 38.37, p<0.008): 0.24 | KRT score at week 12, responders only ([3]; baseline −37.84, p=0.039): −15.42 | earliest time decreased IFN and CTL scores were demonstrable after the initiation of treatment ([3]; post-treatment biopsies): 2 weeks | regrowth achieved ([4]; oral 20 mg BID for at least 3 months): over 90% | time to near-complete hair regrowth ([4]; oral, 20 mg twice daily): 3 to 5 months

C[C@@H]1CCN(C(=O)CC#N)C[C@@H]1N(C)c1ncnc2[nH]ccc12 [tofacitinib]
hair loss 8 weeks following cessation of treatment ([5]; FIG. 16 left panel): Minimal hair loss | hair loss 16 weeks following cessation of treatment ([5]; FIG. 16 right panel): almost complete loss of scalp hair | outcome after cessation of treatment ([5]; human, in vivo): near-complete hair loss | adverse events ([5]; oral 5 mg twice daily): no adverse events reported | hair regrowth at month 1 ([5]; oral 5 mg twice daily): Patchy regrowth | laboratory abnormalities (complete blood count, complete metabolic panel, lipid profile) ([5]; oral 5 mg twice daily): no laboratory abnormalities | regrowth of eyebrows and eyelashes ([5]; oral 5 mg twice daily): Significant regrowth | scalp hair regrowth 4 months after initiating treatment ([5]; oral 5 mg twice daily): nearly complete | scalp hair regrowth after three months of treatment ([5]; oral 5 mg twice daily): 94% | scalp hair regrowth after two months of treatment ([5]; oral 5 mg twice daily): 62.5% | serum levels of CXCL10 (CXCL10): decreased after 4 weeks of treatment | killing of dermal sheath cells (dermal sheath cells): blocked | IFN and CTL signatures (ALADIN) [6]: decreased by 4 weeks of treatment, although not to the level of normal controls | IL-15-induced upregulation of granzyme B and IFN-γ expression [7]: blocked | IL-15-triggered pSTAT5 activation ([7]; cultured CTL effectors): blocked | persistence of effects after the cessation of treatment ([8]; systemic therapy): 2-3 months | frequency of CD8+NKG2D+ T cells [8, 10]: reduced the frequency of CD8+NKG2D+ T cells | hair regrowth [8, 10]: substantial hair regrowth all over the body | histological markers [8, 10]: reversed histological markers | AA development in grafted recipients (C3H/HeJ grafted mice): prevented the development of AA | CD8+NKG2D+ T cells in the skin (infiltration, accumulation, expansion) (C3H/HeJ grafted mice): prevented | reversal of disease in treated lesions [9]: highly effective in reversing disease in treated lesions

From patent publication US20190072541A1, “BIOMARKERS FOR TREATMENT OF ALOPECIA AREATA” (THE TRUSTEES OF COLUMBIA UNIVERSITY IN THE CITY OF NEW YORK, priority 2015, published 2019)
